The results in this text go back to patent publication US10292391B2, “Pesticidally active 1,2,4-triazole derivatives with sulphur containing substituents” (Syngenta Participations AG, priority 2015, dated 2019).

A value given as a limit tells only on which side of the number the result lay.

Series [1] deals with Spodoptera littoralis (Egyptian Cotton Leaf Worm). In words: Activity against Spodoptera littoralis, sprayed cotton leaf discs. The class given is in vivo. Particulars: foliar, 72 h, application rate of 200 ppm, L1 larvae, 3 days after infestation, read-out: control (at least one of mortality, anti-feedant effect, and growth inhibition).
Series [2] deals with Thrips tabaci (Onion Thrips). Briefly: Activity against Thrips tabaci, sprayed sunflower leaf discs. Particulars: foliar, 144 h, application rate of 200 ppm, thrips population of mixed ages, 6 days after infestation. The format is in vivo. The protocol: Sunflower leaf discs were placed on agar in 24-well microtiter plates and sprayed with aqueous test solutions prepared from 10,000 ppm DMSO stock solutions. After drying the leaf discs were infested with a thrips population of mixed ages. The samples were assessed for mortality 6 days after infestation.

The test system of series [3] is Plutella xylostella (Diamond Back Moth). In words: Activity against Plutella xylostella, treated artificial diet. The format is in vivo. Particulars: 120 h, application rate of 200 ppm, L2 larvae, 5 days after infestation, read-out: effect in at least one of the two categories (mortality or growth inhibition). How it is done: 24-well microtiter plates with artificial diet were treated with aqueous test solutions prepared from 10,000 ppm DMSO stock solutions by pipetting. After drying, the plates were infested with L2 larvae (10 to 15 per well). The samples were assessed for mortality and growth inhibition in comparison to untreated samples 5 days after infestation.

Series [4] relates to Euschistus heros(Neotropical Brown Stink Bug). Briefly: Activity against Euschistus heros, sprayed soybean leaf. The class given is in vivo. The following applies: 120 h, application rate of 200 ppm, N-2 nymphs, 5 days after infestation, read-out: effect in at least one of the two categories (mortality or growth inhibition). How it is done: Soybean leaf on agar in 24-well microtiter plates were sprayed with aqueous test solutions prepared from 10,000 ppm DMSO stock solutions. After drying the leaf were infested with N-2 nymphs. The samples were assessed for mortality and growth inhibition in comparison to untreated samples 5 days after infestation.

Series [5] has as its system Spodoptera littoralis (Egyptian Cotton Leaf Worm). Briefly: Activity against Spodoptera littoralis, systemic via lettuce grown on treated agar. The following applies: 144 h, test rate of 12.5 ppm, root uptake by lettuce, 6 days after infestation, read-out: effect in at least one of the three categories (mortality, anti-feedancy, or growth inhibition). The format is in vivo. The text has this: Test compounds were applied by pipette from 10,000 ppm DMSO stock solutions into 24-well plates and mixed with agar. Lettuce seeds were placed on the agar and the multi well plate was closed by another plate which contains also agar. After 7 days the roots have absorbed the compound and the lettuce has grown into the lid plate. The lettuce leafs were now cut off into the lid plate. Spodoptera eggs were pipetted through a plastic stencil on a humid gel blotting paper and the plate closed with it. The samples were assessed for mortality, anti-feedant effect and growth inhibition in comparison to untreated samples 6 days after infestation.

Series [6] has as its system Myzus persicae (Green Peach Aphid). In words: Activity against Myzus persicae, systemic via roots of pea seedlings. The format is in vivo. Particulars: 144 h, test rate of 24 ppm, roots of pea seedlings in test solution, 6 days. How it is done: Roots of pea seedlings infested with an aphid population of mixed ages were placed directly in the aqueous test solutions prepared from 10,000 DMSO stock solutions. The samples were assessed for mortality 6 days after placing seedlings in test solutions.

The subject of series [7] is Bemisia tabaci (Cotton White Fly). In words: Activity against Bemisia tabaci, sprayed cotton leaf discs. The following applies: foliar, 144 h, application rate of 200 ppm, adult white flies, 6 days after incubation. The class given is in vivo. The protocol: Cotton leaf discs were placed on agar in 24-well microtiter plates and sprayed with aqueous test solutions prepared from 10,000 ppm DMSO stock solutions. After drying the leaf discs were infested with adult white flies. The samples were checked for mortality 6 days after incubation.

For series [8], the system named is Myzus persicae (Green Peach Aphid). Briefly: Activity against Myzus persicae, sprayed sunflower leaf discs. Particulars: foliar, 144 h, application rate of 200 ppm, aphid population of mixed ages, 6 days after infestation. The class given is in vivo. The protocol: Sunflower leaf discs were placed on agar in a 24-well microtiter plate and sprayed with aqueous test solutions prepared from 10,000 ppm DMSO stock solutions. After drying, the leaf discs were infested with an aphid population of mixed ages. The samples were assessed for mortality 6 days after infestation.

Series [9] relates to Diabrotica Balteata (Corn Root Worm). Briefly: Activity against Diabrotica balteata, sprayed maize sprouts. The class given is in vivo. The following applies: 96 h, application rate of 200 ppm, L2 larvae, 4 days after infestation, read-out: effect in at least one of the two categories (mortality or growth inhibition). How it is done:
Maize sprouts, placed on an agar layer in 24-well microtiter plates were treated with aqueous test solutions prepared from 10,000 ppm DMSO stock solutions by spraying. After drying, the plates were infested with L2 larvae (6 to 10 per well). The samples were assessed for mortality and growth inhibition in comparison to untreated samples 4 days after infestation.

Series [10] concerns Frankliniella occidentalis (Western Flower Thrips). Briefly: Activity against Frankliniella occidentalis, sprayed sunflower leaf discs. The class given is in vivo. The following applies: foliar, 168 h, application rate of 200 ppm, population of mixed ages, 7 days after infestation. The protocol: Sunflower leaf discs were placed on agar in 24-well microtiter plates and sprayed with aqueous test solutions prepared from 10,000 DMSO stock solutions. After drying the leaf discs were infested with a Frankliniella population of mixed ages. The samples were assessed for mortality 7 days after infestation.

Series [11] concerns Tetranychus urticae (Two-Spotted Spider Mite). In words: Activity against Tetranychus urticae, sprayed bean leaf discs. Particulars: foliar, 192 h. The class given is in vivo. The protocol: Bean leaf discs on agar in 24-well microtiter plates were sprayed with aqueous test solutions prepared from 10,000 ppm DMSO stock solutions. After drying the leaf discs were infested with a mite population of mixed ages. The samples were assessed for mortality on mixed population (mobile stages) 8 days after infestation.

For orientation: mortality means the share of the test organisms that died. A word on the melting point: it is the temperature of the solid-liquid transition.

On to `CCS(=O)(=O)c1cc(-n2cc(C#N)cn2)cnc1-c1nnc(-c2cc(C(F)(F)F)ccn2)n1C` [Compound P14, 1-[5-ethylsulfonyl-6-[4-methyl-5-[4-(trifluoromethyl)-2-pyridyl]-1,2,4-triazol-3-yl]-3-pyridyl]pyrazole-4-carbonitrile], for which the mortality at 200 ppm in series [1], in [2], in [7], in [8] and in series [10] was no less than 80% each time. Moreover, the percent effect (mortality or growth inhibition) at 200 ppm in [3], in [4] and in [9] was no less than 80% throughout. For the same molecule, the percent control (mortality, anti-feedancy or growth inhibition) at 12.5 ppm in [5] was no less than 80%. The mortality at 24 ppm in series [6] was no less than 80%.
Take `CCS(=O)(=O)c1cc(C2(C#N)CC2)cnc1-c1nnc(-c2cc(C(F)(F)F)ccn2)n1C` [Compound P17, 1-[5-ethylsulfonyl-6-[4-methyl-5-[4-(trifluoromethyl)-2-pyridyl]-1,2,4-triazol-3-yl]-3-pyridyl]cyclopropanecarbonitrile]: the mortality at 200 ppm in series [1], in [2], in [7], in [8] and in series [10] was no less than 80% in each case. The percent effect (mortality or growth inhibition) at 200 ppm in [3], in series [4] and in series [9] was no less than 80% each time. In addition, the percent control (mortality, anti-feedancy or growth inhibition) at 12.5 ppm in [5] is no less than 80%. This molecule also showed a mortality at 24 ppm in series [6] of no less than 80%.
In the case of `CCS(=O)(=O)c1cc(-c2nccc(C#N)n2)cnc1-c1nnc(-c2cc(C(F)(F)F)ccn2)n1C` [Compound P19], the mortality at 200 ppm in series [1] and in series [11] was no less than 80% each time. The percent effect (mortality or growth inhibition) at 200 ppm in series [9] was no less than 80%.
Consider `CCS(=O)(=O)c1cc(-n2cnc(Cl)n2)cnc1-c1nnc(-c2cc(C(F)(F)F)ccn2)n1C` [Compound P27], for which the mortality at 200 ppm in series [1], in [2], in series [7], in [8] and in series [10] was no less than 80% throughout. The percent effect (mortality or growth inhibition) at 200 ppm in series [3], in series [4] and in series [9] was no less than 80% throughout. Besides, the percent control (mortality, anti-feedancy or growth inhibition) at 12.5 ppm in series [5] is no less than 80%. This molecule registered a mortality at 24 ppm in [6] of no less than 80%.
With `CCSc1ccc(-c2ccc(C(F)(F)F)cc2)nc1-c1nnc(-c2cc(C(F)(F)F)ccn2)n1C` [Compound P31, 3-ethylsulfanyl-2-[4-methyl-5-[4-(trifluoromethyl)-2-pyridyl]-1,2,4-triazol-3-yl]-6-[4-(trifluoromethyl)phenyl]pyridine], the melting point lay in the range of 174 to 175 °C.
On the same count and under the same terms, under `CCSc1cc(SC(F)(F)F)cnc1-c1nnc(-c2cc(C(F)(F)F)ccn2)n1C` [Compound P33, 3-ethylsulfanyl-2-[4-methyl-5-[4-(trifluoromethyl)-2-pyridyl]-1,2,4-triazol-3-yl]-5-(trifluoromethylsulfanyl)pyridine] stands 94 to 95 °C; under `CCS(=O)(=O)c1ccc(-n2cnc(C#N)n2)nc1-c1nnc(-c2cc(C(F)(F)F)ncn2)n1C` [Compound P49], 242 to 244 °C.
The same measure, in the same setting: under `CCS(=O)(=O)c1ccc(-c2cccc(F)c2)nc1-c1nnc(-c2cc(C(F)(F)F)ncn2)n1C` [Compound P51] stands 201 to 203 °C.
